One assay concerns DOHH2 cells. Nature of the assay: Cell proliferation assay (MTS), DOHH2 cells, 120 h. The assay is classed as cell-based. To be noted: Homo sapiens, DOHH-2, 120 h. Summed up:
(§1)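 Treatment lasts 72 h for RS4;11 and 120 h for DOHH2 cells seeded at 5000 per well in serum-containing RPMI-1640. A 2 h MTS step, halted with 10% SDS, precedes dual-wavelength absorbance reading and IC50 fitting.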

The test system of a further assay is RS4;11 cells. Briefly: Cell proliferation assay (MTS), RS4;11 cells, 72 h. The assay is classed as cell-based. To be noted: Homo sapiens, RS4-11, 72 h. Put shortly:
as §1

As a reminder, the IC50 is the concentration that gives 50% inhibition. A lower IC50 goes with greater potency. With `CN1CCN(CC[C@H]2CSc3cc(S(=O)(=O)NC(=O)c4ccc(N5CCN(CC6=C(c7ccc(Cl)cc7)CC(C)(C)CC6)CC5)cc4Oc4cnc5[nH]ccc5c4)cc([N+](=O)[O-])c3N2)CC1` [Example 3-19, (S)-2-((1H-pyrrolo[2,3-b]pyridin-5-yl)oxy)-4-(4-((4′-chloro-5,5-dimethyl-3,4,5,6-tetra-hydro-[1,1′-biphenyl]-2-yl)methyl)piperazin-1-yl)-N-((3-(2-(4-methylpiperazin-1-yl)ethyl)-5-nitro-3,4-dihydro-2H-benzo[b][1,4]thiazin-7-yl)sulfonyl)benzamide], the results for the IC50 with DOHH2 cells and in the assay on RS4;11 cells were 6 nM and 1 nM, respectively.

In the case of `CC1(C)CCC(CN2CCN(c3ccc(C(=O)NS(=O)(=O)c4cc5c(c([N+](=O)[O-])c4)N[C@@H](CCN4CCOCC4)CS5)c(Oc4cnc5[nH]ccc5c4)c3)CC2)=C(c2ccc(Cl)cc2)C1` [Example 3-20, (S)-2-((1H-pyrrolo[2,3-b]pyridin-5-yl)oxy)-4-(4-((4′-chloro-5,5-dimethyl-3,4,5,6-tetra-hydro-[1,1′-biphenyl]-2-yl)methyl)piperazin-1-yl)-N-((3-(2-morpholinoethyl)-5-nitro-3,4-dihydro-2H-benzo[b][1,4]thiazin-7-yl)sulfonyl)benzamide], the half-maximal inhibitory concentration (IC50) is 9 nM with DOHH2 cells and 2 nM in the assay with RS4;11 cells.

For the compound `CN1CCN(C[C@@H]2CNc3cc(S(=O)(=O)NC(=O)c4ccc(N5CCN(CC6=C(c7ccc(Cl)cc7)CC(C)(C)CC6)CC5)cc4Oc4cnc5[nH]ccc5c4)cc([N+](=O)[O-])c3N2)CC1` [Example 4-1, (S)-2-((1H-pyrrolo[2,3-b]pyridin-5-yl)oxy)-4-(4-((4′-chloro-5,5-dimethyl-3,4,5,6-tetrahydro-[1,1′-biphenyl]-2-yl)methyl)piperazin-1-yl)-N-((2-((4-methylpiperazin-1-yl)methyl)-8-nitro-1,2,3,4-tetrahydroquinoxalin-6-yl)sulfonyl)benzamide], the values for the IC50 in the assay with DOHH2 cells and in the assay with RS4;11 cells were 13 nM and 1 nM, respectively.

As to `CC1(C)CCC(CN2CCN(c3ccc(C(=O)NS(=O)(=O)c4cc5c(c([N+](=O)[O-])c4)N[C@H](CN4CCOCC4)CN5)c(Oc4cnc5[nH]ccc5c4)c3)CC2)=C(c2ccc(Cl)cc2)C1` [Example 4-2, (S)-2-((1H-pyrrolo[2,3-b]pyridin-5-yl)oxy)-4-(4-((4′-chloro-5,5-dimethyl-3,4,5,6-tetra-hydro-[1,1′-biphenyl]-2-yl)methyl)piperazin-1-yl)-N-((2-(morpholinomethyl)-8-nitro-1,2,3,4-tetrahydroquinoxalin-6-yl)sulfonyl) benzamide], the 50% inhibitory concentration (IC50) was 29 nM in the assay with DOHH2 cells and 9 nM in the assay with RS4;11 cells.

In the case of `CN1CCN(C[C@H]2CNc3cc(S(=O)(=O)NC(=O)c4ccc(N5CCN(CC6=C(c7ccc(Cl)cc7)CC(C)(C)CC6)CC5)cc4Oc4cnc5[nH]ccc5c4)cc([N+](=O)[O-])c3N2)CC1` [Example 4-3, (R)-2-((1H-pyrrolo[2,3-b]pyridin-5-yl)oxy)-4-(4-((4′-chloro-5,5-dimethyl-3,4,5,6-tetra-hydro-[1,1′-biphenyl]-2-yl)methyl)piperazin-1-yl)-N-((2-((4-methylpiperazin-1-yl)methyl)-8-nitro-1,2,3,4-tetrahydroquinoxalin-6-yl)sulfonyl)benzamide], the concentration for half-maximal inhibition (IC50) in the assay on DOHH2 cells is 38 nM; in the assay on RS4;11 cells, 46 nM.

For the compound `CC1(C)CCC(CN2CCN(c3ccc(C(=O)NS(=O)(=O)c4cc5c(c([N+](=O)[O-])c4)N[C@@H](CN4CCOCC4)CN5)c(Oc4cnc5[nH]ccc5c4)c3)CC2)=C(c2ccc(Cl)cc2)C1` [Example 4-4, (R)-2-((1H-pyrrolo[2,3-b]pyridin-5-yl)oxy)-4-(4-((4′-chloro-5,5-dimethyl-3,4,5,6-tetra-hydro-[1,1′-biphenyl]-2-yl)methyl)piperazin-1-yl)-N-((2-(morpholinomethyl)-8-nitro-1,2,3,4-tetrahydroquinoxalin-6-yl)sulfonyl) benzamide], the results for the IC50 in the assay on DOHH2 cells and in the assay on RS4;11 cells were 28 nM and 14 nM, respectively.

As to `CC1(C)CCC(CN2CCN(c3ccc(C(=O)NS(=O)(=O)c4cc5c(c([N+](=O)[O-])c4)O[C@@H](CN4CCOCC4)CO5)c(Oc4cnc5[nH]ccc5c4)c3)CC2)=C(c2ccc(Cl)cc2)C1` [Example 5-1, (S)-2-((1H-pyrrolo[2,3-b]pyridin-5-yl)oxy)-4-(4-((4′-chloro-5,5-dimethyl-3,4,5,6-tetrahydro-[1,1′-biphenyl]-2-yl)methyl)piperazin-1-yl)-N-((2-(morpholinomethyl)-8-nitro-2,3-dihydrobenzo[b][1,4]dioxin-6-yl)sulfonyl)benzamide], the half-maximal inhibitory concentration (IC50) in the assay on DOHH2 cells turned out to be 17 nM; in the assay with RS4;11 cells it was 9 nM.

On to `CN1CCN(C[C@H]2COc3cc(S(=O)(=O)NC(=O)c4ccc(N5CCN(CC6=C(c7ccc(Cl)cc7)CC(C)(C)CC6)CC5)cc4Oc4cnc5[nH]ccc5c4)cc([N+](=O)[O-])c3O2)CC1` [Example 5-2], for which the IC50 in the assay on DOHH2 cells was found to be 25 nM; with RS4;11 cells, 1 nM.

Take `CC1(C)CCC(CN2CCN(c3ccc(C(=O)NS(=O)(=O)c4cc5c(c([N+](=O)[O-])c4)O[C@H](CN4CCOCC4)CO5)c(Oc4cnc5[nH]ccc5c4)c3)CC2)=C(c2ccc(Cl)cc2)C1` [Example 5-3, (R)-2-((1H-pyrrolo[2,3-b]pyridin-5-yl)oxy)-4-(4-((4′-chloro-5,5-dimethyl-3,4,5,6-tetrahydro-[1,1′-biphenyl]-2-yl)methyl)piperazin-1-yl)-N-((2-(morpholinomethyl)-8-nitro-2,3-dihydrobenzo[b][1,4]dioxin-6-yl)sulfonyl)benzamide]: the IC50 stood at 12 nM with DOHH2 cells and 4 nM in the assay on RS4;11 cells.

Regarding `CN1CCN(C[C@@H]2COc3cc(S(=O)(=O)NC(=O)c4ccc(N5CCN(CC6=C(c7ccc(Cl)cc7)CC(C)(C)CC6)CC5)cc4Oc4cnc5[nH]ccc5c4)cc([N+](=O)[O-])c3O2)CC1` [Example 5-4], the concentration for half-maximal inhibition (IC50) amounted to 13 nM in the assay with DOHH2 cells and 34 nM in the assay on RS4;11 cells.

Take `CC1(C)CCC(CN2CCN(c3ccc(C(=O)NS(=O)(=O)c4cc5c(c([N+](=O)[O-])c4)N[C@H](CN4C[C@@H]6C[C@H]4CO6)CO5)c(-n4ncc5nc6[nH]ccc6cc54)c3)CC2)=C(c2ccc(Cl)cc2)C1` [Example 6-1, N—(((R)-3-(((1S,4S)-2-oxa-5-azabicyclo[2.2.1]heptan-5-yl)methyl)-5-nitro-3,4-dihydro-2H-benzo[b][1,4]oxazin-7-yl)sulfonyl)-4-(4-((4′-chloro-5,5-dimethyl-3,4,5,6-tetrahydro-[1,1′-biphenyl]-2-yl)methyl)piperazin-1-yl)-2-(pyrazolo[4,3-b]pyrrolo[3,2-e]pyridin-1(5H)-yl)benzamide]: the half-inhibitory concentration (IC50) came to 73 nM in the assay with DOHH2 cells and 2 nM in the assay on RS4;11 cells.

The values are drawn from patent publication US11091478B2 (Fochon Pharmaceuticals, Ltd., priority 2017, dated 2021).
